Results: PubChem BioAssay (NCI)
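48-hour exposure; five concentrations; linearly interpolated endpoints. GI50: concentration for 50% inhibition of growth. TGI: total growth inhibition.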

Key:
Assay in all cases: inhibition of tumour cell growth, NCI panel, 48 h
786-0 renal = system: 786-0 renal
A549 NSCLC = system: A549 NSCLC
NCI-H23 lung = system: NCI-H23 lung
OVCAR-3 ovarian = system: OVCAR-3 ovarian
OVCAR-5 ovarian = system: OVCAR-5 ovarian
HL-60(TB) leukemia = system: HL-60(TB) leukemia
LOX IMVI melanoma = system: LOX IMVI melanoma
MALME-3M melanoma = system: MALME-3M melanoma
TK-10 renal = system: TK-10 renal
HT29 colon = system: HT29 colon

Compound	GI50 (786-0 renal)	TGI (786-0 renal)	GI50 (A549 NSCLC)	TGI (A549 NSCLC)	GI50 (NCI-H23 lung)	TGI (NCI-H23 lung)	GI50 (OVCAR-3 ovarian)	TGI (OVCAR-3 ovarian)	GI50 (OVCAR-5 ovarian)	TGI (OVCAR-5 ovarian)	GI50 (HL-60(TB) leukemia)	TGI (HL-60(TB) leukemia)	GI50 (LOX IMVI melanoma)	TGI (LOX IMVI melanoma)	GI50 (MALME-3M melanoma)	TGI (MALME-3M melanoma)	GI50 (TK-10 renal)	TGI (TK-10 renal)	GI50 (HT29 colon)	TGI (HT29 colon)
NC(=O)c1ccc(C2C3=C(CCCC3=O)OC3=C2C(=O)c2ccccc2C3=O)cc1 (stereo not given)	1.04 µM	2.33 µM	2.28 µM	4.66 µM	0.202 µM	1.14 µM	0.276 µM	0.852 µM	1.91 µM	3.92 µM	0.239 µM	0.538 µM	0.181 µM	1.06 µM	0.332 µM	0.986 µM	1.82 µM	3.22 µM	1.77 µM	5.58 µM
Cn1cc(CNCC2CCN(c3ncc(C(=O)NO)cn3)CC2)c2ccccc21	0.0414 µM	8.89 µM	0.0123 µM	0.519 µM	0.0218 µM	0.436 µM	0.0158 µM	0.126 µM	< 0.01 µM	0.598 µM	0.0242 µM	17.5 µM	0.0117 µM	0.0325 µM	< 0.01 µM	15.2 µM	< 0.0107 µM	0.0683 µM	< 0.01 µM	0.587 µM
Cc1ccc(NC(=O)Cn2c(Br)nc3c2c(=O)n(C)c(=O)n3C)cc1	2.32 µM	5.68 µM	5.61 µM	24.5 µM	6.31 µM	22 µM	2.31 µM	5.35 µM	3.69 µM	13.9 µM	> 100 µM	> 100 µM	6.27 µM	19.4 µM	2.33 µM	7.01 µM	3.2 µM	9.93 µM	13.8 µM	51.5 µM
C=C=C(C(=O)OC)S(=O)c1ccc([N+](=O)[O-])cc1[N+](=O)[O-] (stereo not given)	–	> 66.6 µM	–	> 100 µM	–	> 87.3 µM	–	63.1 µM	–	> 100 µM	–	45.3 µM	–	46.4 µM	–	> 86.2 µM	–	> 85.7 µM	–	52.9 µM
O=Cc1ccc(-c2cccs2)s1	–	> 100 µM	–	> 100 µM	–	> 68.1 µM	–	58.1 µM	–	69.7 µM	–	> 68.1 µM	–	> 100 µM	–	> 100 µM	–	11.7 µM	–	> 68.1 µM
O=c1[nH]c(=O)n(C2OC3COC2C3O)cc1F (stereo not given)	–	> 100 µM	–	> 100 µM	–	> 100 µM	–	> 100 µM	–	> 100 µM	–	> 100 µM	–	> 100 µM	–	> 100 µM	–	> 100 µM	–	> 100 µM
CCOc1c(Cl)cc(CNC(C)C(O)c2ccccc2)cc1OC (stereo not given)	16.1 µM	38.9 µM	43.9 µM	> 100 µM	31.3 µM	> 100 µM	40.1 µM	> 100 µM	24.3 µM	96.4 µM	21.1 µM	46.1 µM	17 µM	30.7 µM	16.6 µM	33.6 µM	31.7 µM	> 100 µM	18.6 µM	45.5 µM
CCOC(=O)c1cc(/C=C/C(C)=C/C(=O)OC)n(C)c1C	–	> 100 µM	–	> 100 µM	–	> 100 µM	–	> 100 µM	–	> 100 µM	–	> 100 µM	–	> 100 µM	–	> 100 µM	–	> 100 µM	–	> 100 µM
